Test results taken from patent US4335249A, “Herbicidal diphenyl ethers, sulfides, sulfoxides and sulfones” (Rohm and Haas Company, priority 1976, dated 1982).

What was measured:
Format in all cases: in vivo
[1] = test system: yellow nutsedge (Cyperus esculentus); assay: Postemergence herbicidal activity, yellow nutsedge; conditions: Cyperus, post-emergence, 336 h; for pest or weed control at 2241.7 g/ha: 2 lb/A
Outline: (§1)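 Compound in acetone/water sprayed on soil flats at 50 gal/acre carrier volume, at rates given in lb/A. Preemergence: applied right after planting; postemergence: applied two weeks after germination. Scored about two weeks later as average percent of plants killed.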

[2] = test system: foxtail (Setaria spp.); assay: Preemergence herbicidal activity, foxtail; conditions: Setaria, pre-emergence, 336 h, Pre; for pest or weed control at 2241.7 g/ha: 2 lb/A
Outline: as §1

[3] = test system: tomato (Lycopersicon esculentum); assay: Preemergence herbicidal activity, tomato; conditions: Solanum lycopersicum, pre-emergence, 336 h, Pre; for pest or weed control at 2241.7 g/ha: 2 lb/A
Outline: as §1

[4] = test system: velvetleaf (Abutilon theophrasti); assay: Preemergence herbicidal activity, velvetleaf; conditions: Abutilon theophrasti, pre-emergence, 336 h, Pre; for pest or weed control at 2241.7 g/ha: 2 lb/A
Outline: as §1

[5] = test system: yellow nutsedge (Cyperus esculentus); assay: Preemergence herbicidal activity, yellow nutsedge; conditions: Cyperus, pre-emergence, 336 h; for pest or weed control at 2241.7 g/ha: 2 lb/A
Outline: as §1

[6] = test system: cocklebur (Xanthium pensylvanicum); assay: Preemergence herbicidal activity, cocklebur; conditions: Xanthium strumarium, pre-emergence, 336 h; for pest or weed control at 2241.7 g/ha: 2 lb/A
Outline: as §1

[7] = test system: downybrome (Bromus tectorum); assay: Preemergence herbicidal activity, downybrome; conditions: Bromus tectorum, pre-emergence, 336 h, Pre; for pest or weed control at 2241.7 g/ha: 2 lb/A
Outline: as §1

[8] = test system: cocklebur (Xanthium pensylvanicum); assay: Postemergence herbicidal activity, cocklebur; conditions: Xanthium strumarium, post-emergence, 336 h; for pest or weed control at 2241.7 g/ha: 2 lb/A
Outline: as §1

[9] = test system: tomato (Lycopersicon esculentum); assay: Postemergence herbicidal activity, tomato; conditions: Solanum lycopersicum, post-emergence, 336 h, Post; for pest or weed control at 2241.7 g/ha: 2 lb/A
Outline: as §1

[10] = test system: wild oats (Avena fatua); assay: Postemergence herbicidal activity, wild oats; conditions: Avena fatua, post-emergence, 336 h, Post, read-out: % control, Wild oat; for pest or weed control at 2241.7 g/ha: 2 lb/A
Outline: as §1

[11] = test system: foxtail (Setaria spp.); assay: Postemergence herbicidal activity, foxtail; conditions: Setaria, post-emergence, 336 h, Post; for pest or weed control at 2241.7 g/ha: 2 lb/A
Outline: as §1

[12] = test system: downybrome (Bromus tectorum); assay: Postemergence herbicidal activity, downybrome; conditions: Bromus tectorum, post-emergence, 336 h, Post; for pest or weed control at 2241.7 g/ha: 2 lb/A
Outline: as §1

[13] = test system: morningglory (Ipomoca spp.); assay: Postemergence herbicidal activity, morningglory; conditions: Ipomoea, post-emergence, 336 h; for pest or weed control at 2241.7 g/ha: 2 lb/A
Outline: as §1

[14] = test system: velvetleaf (Abutilon theophrasti); assay: Postemergence herbicidal activity, velvetleaf; conditions: Abutilon theophrasti, post-emergence, 336 h; for pest or weed control at 2241.7 g/ha: 2 lb/A
Outline: (§2)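 Control of the weed species is the read-out, following spray application at a given rate in lb/A. Flats of seeded soil received treatment either directly upon planting or, for postemergence, two weeks after seedlings emerged. Spray carrier was aqueous acetone at 50 gallons per acre equivalent.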

[15] = test system: morningglory (Ipomoca spp.); assay: Preemergence herbicidal activity, morningglory; conditions: Ipomoea, pre-emergence, 336 h; for pest or weed control at 2241.7 g/ha: 2 lb/A
Outline: as §1

[16] = test system: barnyardgrass (Echinochloa crusgalli); assay: Preemergence herbicidal activity, barnyardgrass; conditions: Echinochloa crus-galli, pre-emergence, 336 h, Pre; for pest or weed control at 2241.7 g/ha: 2 lb/A
Outline: as §2

[17] = test system: marigold (Tagetes spp.); assay: Postemergence herbicidal activity, marigold; conditions: post-emergence, 336 h; for pest or weed control at 2241.7 g/ha: 2 lb/A
Outline: as §1

[18] = test system: marigold (Tagetes spp.); assay: Preemergence herbicidal activity, marigold; conditions: pre-emergence, 336 h; for pest or weed control at 2241.7 g/ha: 2 lb/A
Outline: as §1

[19] = test system: wild oats (Avena fatua); assay: Preemergence herbicidal activity, wild oats; conditions: Avena fatua, pre-emergence, 336 h, Pre, read-out: % control, Wild oat; for pest or weed control at 2241.7 g/ha: 2 lb/A
Outline: as §1

[20] = test system: barnyardgrass (Echinochloa crusgalli); assay: Postemergence herbicidal activity, barnyardgrass; conditions: Echinochloa crus-galli, post-emergence, 336 h, Post; for pest or weed control at 2241.7 g/ha: 2 lb/A
Outline: as §2

Row | SMILES | pest or weed control at 2241.7 g/ha [1] [%] | pest or weed control at 2241.7 g/ha [2] [%] | pest or weed control at 2241.7 g/ha [3] [%] | pest or weed control at 2241.7 g/ha [4] [%] | pest or weed control at 2241.7 g/ha [5] [%] | pest or weed control at 2241.7 g/ha [6] [%] | pest or weed control at 2241.7 g/ha [7] [%] | pest or weed control at 2241.7 g/ha [8] [%] | pest or weed control at 2241.7 g/ha [9] [%] | pest or weed control at 2241.7 g/ha [10] [%] | pest or weed control at 2241.7 g/ha [11] [%] | pest or weed control at 2241.7 g/ha [12] [%] | pest or weed control at 2241.7 g/ha [13] [%] | pest or weed control at 2241.7 g/ha [14] [%] | pest or weed control at 2241.7 g/ha [15] [%] | pest or weed control at 2241.7 g/ha [16] [%] | pest or weed control at 2241.7 g/ha [17] [%] | pest or weed control at 2241.7 g/ha [18] [%] | pest or weed control at 2241.7 g/ha [19] [%] | pest or weed control at 2241.7 g/ha [20] [%] | also measured
1 | CCOC(=O)CCC(C)Oc1ccc(Oc2ccc(C(F)(F)F)cc2)cc1 (stereo not drawn) [Example 39] | 0 | 99 | 0 | 0 | 0 | 0 | 60 | 60 | 20 | 100 | 100 | 100 | 40 | 0 | 0 | 99 | 0 | 0 | 50 | 100 | –
2 | CCOC(=O)C(C)Oc1ccc([S+]([O-])c2ccccc2C(F)(F)F)cc1 (stereo not drawn) [Example 49, Ethyl 2-[4-(2-trifluoromethylphenylsulfinyl)phenoxy]propionate] | – | – | – | – | – | – | – | – | – | – | – | – | – | – | – | – | – | – | – | – | pest or weed control at 4483.4 g/ha ([1]; 4 lb/A): 0%; pest or weed control at 4483.4 g/ha ([2]; 4 lb/A): 0%; pest or weed control at 4483.4 g/ha ([3]; 4 lb/A): 0%; pest or weed control at 4483.4 g/ha ([4]; 4 lb/A): 0%; pest or weed control at 4483.4 g/ha ([5]; 4 lb/A): 0%; pest or weed control at 4483.4 g/ha ([6]; 4 lb/A): 0%; pest or weed control at 4483.4 g/ha ([7]; 4 lb/A): 0%; pest or weed control at 4483.4 g/ha ([8]; 4 lb/A): 0%; pest or weed control at 4483.4 g/ha ([9]; 4 lb/A): 20%; pest or weed control at 4483.4 g/ha ([10]; 4 lb/A): 30%; pest or weed control at 4483.4 g/ha ([11]; 4 lb/A): 20%; pest or weed control at 4483.4 g/ha ([12]; 4 lb/A): 0%; pest or weed control at 4483.4 g/ha ([13]; 4 lb/A): 0%; pest or weed control at 4483.4 g/ha ([14]; 4 lb/A): 20%; pest or weed control at 4483.4 g/ha ([15]; 4 lb/A): 0%; pest or weed control at 4483.4 g/ha ([16]; 4 lb/A): 0%; pest or weed control at 4483.4 g/ha ([17]; 4 lb/A): 0%; pest or weed control at 4483.4 g/ha ([18]; 4 lb/A): 0%; pest or weed control at 4483.4 g/ha ([19]; 4 lb/A): 0%; pest or weed control at 4483.4 g/ha ([20]; 4 lb/A): 20%
3 | CCC(C)OC(=O)C(C)Oc1ccc(Oc2ccc(C(F)(F)F)cc2Cl)cc1 (stereo not drawn) [Example 34] | 0 | 100 | 0 | 0 | 0 | 0 | 95 | 0 | 0 | 100 | 100 | 99 | 0 | 0 | 0 | 100 | 0 | 0 | 80 | 100 | –
